# Data: the supplement of paper PMC6045584
# ± gives the standard deviation of the averaged measurements.
# What was measured:
# [1] = compound: Cc1ccc(NC(=O)c2ccc(CN3CCN(C)CC3)cc2)cc1Nc1nccc(-c2cccnc2)n1 [IMATINIB]; assay: surviving fraction relative to DMSO-only wells; higher = less growth inhibition; conditions: exposure time: 5 days
# Summary of the method: (§1)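 Each tumour cell line was screened three times, and only lines with replicate Pearson r >0.7 and median Z' >0.3 were kept. Cells in log phase were seeded at 250–500 per well in 384-well plates, left 24 hours, then exposed continuously for five days to inhibitors at 0.5, 1, 5, 10, 50, 100, 500 and 1000 nM. Viability was read as CellTiter-Glo luminescence, with surviving fraction normalised to the median of DMSO-only wells.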
# [2] = compound: Cc1c(N)nc([C@H](CC(N)=O)NC[C@H](N)C(N)=O)nc1C(=O)N[C@H](C(=O)N[C@H](C)[C@@H](O)[C@H](C)C(=O)N[C@H](C(=O)NCCc1nc(-c2nc(C(=O)NCCC[S+](C)C)cs2)cs1)[C@@H](C)O)[C@@H](OC1OC(CO)C(O)C(O)C1OC1OC(CO)C(O)C(OC(N)=O)C1O)c1cnc[nH]1 [BLEOMYCIN]; assay: as above; conditions: exposure time: 5 days
# Summary of the method: as §1
Test System,surviving fraction ([1]; 0.5 nM),surviving fraction ([1]; 1 nM),surviving fraction ([1]; 5 nM),surviving fraction ([1]; 10 nM),surviving fraction ([1]; 50 nM),surviving fraction ([1]; 100 nM),surviving fraction ([1]; 500 nM),surviving fraction ([1]; 1000 nM),surviving fraction ([2]; 0.5 nM),surviving fraction ([2]; 1 nM),surviving fraction ([2]; 5 nM),surviving fraction ([2]; 10 nM),surviving fraction ([2]; 50 nM),surviving fraction ([2]; 100 nM),surviving fraction ([2]; 500 nM),surviving fraction ([2]; 1000 nM)
H23 LUNG,1.04 ± 0.049,1.01 ± 0.021,1.06 ± 0.031,1.07 ± 0.0035,1.08 ± 0.07,1.13 ± 0.061,1.12 ± 0.066,1.13 ± 0.065,0.955 ± 0.013,0.954 ± 0.032,0.886 ± 0.057,0.763 ± 0.028,0.509 ± 0.026,0.338 ± 0.0076,0.193 ± 0.014,0.118 ± 0.011
SNU475 LIVER,1.04 ± 0.086,–,1.06 ± 0.036,1.07 ± 0.019,1.09 ± 0.0085,–,1.06 ± 0.045,–,0.8647 ± 0.0059,0.859 ± 0.0092,0.838 ± 0.014,0.844 ± 0.024,0.8043 ± 0.0023,0.752 ± 0.043,0.53 ± 0.025,0.384 ± 0.0084
MFM223 BREAST,1.27 ± 0.17,1.24 ± 0.041,1.13 ± 0.057,1.19 ± 0.14,1.19 ± 0.063,1.17 ± 0.1,1.18 ± 0.055,1.15 ± 0.052,0.719 ± 0.028,0.784 ± 0.13,0.702 ± 0.076,0.703 ± 0.032,0.961 ± 0.049,0.923 ± 0.0095,0.789 ± 0.047,0.681 ± 0.047
MDAMB453 BREAST,–,1.1 ± 0.086,1.13 ± 0.051,1.12 ± 0.1,1.18 ± 0.034,1.06 ± 0.034,1.082 ± 0.0067,1.04 ± 0.011,1.06 ± 0.051,1.03 ± 0.011,1.05 ± 0.045,1.09 ± 0.064,1.067 ± 0.009,1.14 ± 0.052,0.851 ± 0.061,0.711 ± 0.024
JIMT1 BREAST,1.04 ± 0.047,1 ± 0.051,1.03 ± 0.029,0.99 ± 0.028,–,1.08 ± 0.039,1.03 ± 0.056,1.03 ± 0.045,0.823 ± 0.056,0.82 ± 0.043,0.842 ± 0.019,0.874 ± 0.048,0.952 ± 0.059,0.927 ± 0.028,0.825 ± 0.058,0.698 ± 0.059
MHM BONE,1.07 ± 0.032,1.03 ± 0.059,1.09 ± 0.043,1.09 ± 0.045,–,–,1.08 ± 0.029,–,0.966 ± 0.034,0.975 ± 0.015,1.01 ± 0.03,0.985 ± 0.019,0.999 ± 0.014,0.921 ± 0.016,0.718 ± 0.013,0.665 ± 0.0046
HOSMNG BONE,1.04 ± 0.12,1.01 ± 0.067,0.994 ± 0.085,1 ± 0.019,1.09 ± 0.1,1.14 ± 0.073,–,1.07 ± 0.14,0.966 ± 0.025,0.983 ± 0.011,0.992 ± 0.015,1.01 ± 0.021,1.05 ± 0.048,1.03 ± 0.083,0.984 ± 0.029,0.845 ± 0.035
BT20 BREAST,1.21 ± 0.064,1.22 ± 0.12,–,1.16 ± 0.062,–,1.14 ± 0.033,1.45 ± 0.19,1.46 ± 0.035,0.766 ± 0.062,0.742 ± 0.02,0.718 ± 0.045,0.768 ± 0.06,0.849 ± 0.071,0.688 ± 0.14,0.48 ± 0.087,0.353 ± 0.042
CAL72 BONE,1.11 ± 0.14,1.09 ± 0.11,1.12 ± 0.065,1.07 ± 0.1,1.15 ± 0.2,–,1.12 ± 0.14,1.14 ± 0.087,1.03 ± 0.032,1.02 ± 0.028,1 ± 0.044,1 ± 0.05,1.04 ± 0.04,1.01 ± 0.037,0.694 ± 0.066,0.556 ± 0.013
VP229 BREAST,1.29 ± 0.17,1.22 ± 0.091,1.12 ± 0.098,1.2 ± 0.3,1.35 ± 0.1,–,1.16 ± 0.064,1.27 ± 0.12,0.776 ± 0.093,0.759 ± 0.052,0.754 ± 0.081,0.711 ± 0.072,0.915 ± 0.089,0.893 ± 0.093,0.837 ± 0.08,0.665 ± 0.076
CADOES1 SOFT TISSUE,0.94 ± 0.11,0.897 ± 0.035,0.926 ± 0.08,0.872 ± 0.012,–,0.948 ± 0.02,1.03 ± 0.085,1.05 ± 0.14,0.943 ± 0.079,0.967 ± 0.089,0.789 ± 0.12,0.776 ± 0.067,0.683 ± 0.051,0.503 ± 0.14,0.285 ± 0.019,0.116 ± 0.017
